The subject of assay [1] is DNA. Kind of assay: Induction of Escherichia coli supercoiled pBR322 DNA cleavage in absence of Cu2+ ion incubated overnight by GelRed DNA gel staining based electrophoresis analysis. Type of assay: nucleic-acid assay.
The test system of assay [2] is HaCaT. Nature of the assay: Anti-ferroptotic activity against Erastin-induced ferroptosis in human HaCaT cells assessed as increase in cell viability at 5 uM preincubated with compound for 4 hrs followed by […] administration and measured after 24 hrs by MTT assay. Type of assay: functional, cell-based. As to conditions: time 28.0 hrs. For orientation: Tetrazolium dyes change colour on reduction, which living cells bring about.

Assay [3] can be described thus: Inhibition of quorum sensing system in Vibrio harveyi BB120 assessed as reduction in luminescence incubated for 5 hrs under shaking condition by luminescence microplate reader analysis.
Assay [4] relates to DNA. Kind of assay: Induction of Escherichia coli supercoiled pBR322 DNA cleavage assessed as cleavage of DNA into open-circular forms in presence of Copper(II)acetate incubated overnight by GelRed DNA gel staining based electrophoresis analysis. Type of assay: nucleic-acid assay.
Assay [5] concerns Vibrio harveyi. Kind of assay: Antibacterial activity against Vibrio harveyi BB120 assessed as inhibition of bacterial growth upto 250 uM measured at 24 hrs by broth microdilution assay. Type of assay: functional, organism-based.
The subject of assay [6] is Vibrio harveyi. Kind of assay: Antibacterial activity against Vibrio harveyi BB120 assessed as inhibition of bacterial growth at 1 to 1024 ug/ml measured at 24 hrs by broth microdilution assay. Type of assay: functional, organism-based. As to conditions: dose 1-1024 µg/ml. (Broth dilution looks for growth in wells or tubes with falling amounts of substance.)
Assay [7] has as its system HaCaT. Nature of the assay: Anti-ferroptotic activity against Erastin-induced ferroptosis in human HaCaT cells assessed as increase in cell viability at 5 uM preincubated with compound for 4 hrs followed by […] administration and measured after 24 hrs by MTT assay relative to control. It is filed as functional. As to conditions: time 28 hrs.
The subject of assay [8] is Vibrio harveyi. Nature of the assay: Antibacterial activity against Vibrio harveyi BB120 assessed as inhibition of bacterial growth measured at 24 hrs by broth microdilution assay. Type of assay: functional.
Assay [9] concerns Calf thymus DNA. Kind of assay: Binding affinity to calf thymus DNA assessed as hyperchromicity by UV-Vis spectroscopic analysis. Type of assay: nucleic-acid assay. As to conditions: Bos taurus; dose <= 30.0 µM.
The subject of assay [10] is Calf thymus DNA. Kind of assay: Binding affinity to calf thymus DNA assessed as apparent binding constant upto 30 uM by UV-Vis spectroscopic analysis. It is filed as nucleic-acid assay. As to conditions: Bos taurus.
Assay [11] concerns Staphylococcus aureus. Kind of assay: Antibacterial activity against methicillin-resistant Staphylococcus aureus MW2 assessed as inhibition of bacterial growth measured at 24 hrs by broth microdilution assay. It is filed as functional.
For assay [12], the system named is Escherichia coli. Kind of assay: Antibacterial activity against Escherichia coli assessed as inhibition of bacterial growth. It is filed as functional, organism-based.
The subject of assay [13] is Staphylococcus aureus. Kind of assay: Antibacterial activity against methicillin-resistant Staphylococcus aureus MW2 assessed as zone of inhibition incubated overnight by disc diffusion assay. Type of assay: functional.
The test system of assay [14] is HaCaT. Nature of the assay: Anti-ferroptotic activity against Erastin-induced ferroptosis in human HaCaT cells assessed as cell viability at 5 uM preincubated with compound for 4 hrs followed by […] administration and measured after 24 hrs by MTT assay relative to control. Type of assay: functional. As to conditions: time 28 hrs.

The values below come from ChEMBL document CHEMBL5325454, “Synthesis, anti-ferroptosis, anti-quorum sensing, antibacterial and DNA interaction studies of chromene-hydrazone derivatives” (Bioorg Med Chem, 2023).

≈ marks a conversion by molar mass, not a printed value. Calls of active or inactive are those of the source. The rule behind the calls is not given here. Some results are limits rather than exact numbers.

By IC50 is commonly meant the point on the concentration scale where inhibition reaches its midpoint. In general, MIC refers to the lowest concentration found to suppress growth.

As for `Cc1ccc(S(=O)(=O)N/N=C/c2ccc3c(c2O)C=CC(C)(C)O3)cc1`, the outcome in [1], in assay [2] and in [5] was inactive. Moreover, the IC50 in assay [3] is over 250 µM. For the same molecule, the outcome in assay [4] was Active.
`COc1ccc(C(=O)N/N=C/c2ccc3c(c2O)C=CC(C)(C)O3)cc1`: the outcome in [1] and in assay [6] was inactive. Also, the inhibition result in assay [3] was “inactive”. Moreover, the outcome in [4] was Active. In assay [7], the Activity is listed as 44%.
`CC1(C)C=Cc2c(ccc(/C=N/NC(=O)c3ccc(Cl)cc3)c2O)O1`: the outcome in [1] was inactive. Further, the MIC in [8] was over 250 µM. Moreover, the inhibition result in assay [3] is “inactive”. For the same molecule, in assay [4], the result was Active. For the same molecule, the Activity in [7] is recorded as 44%.
For `CC1(C)C=Cc2c(ccc(/C=N/NC(=O)c3ccccn3)c2O)O1`, the outcome in assay [1] and in assay [6] was inactive. For the same molecule, the inhibition result in assay [3] is “inactive”. Further, the result in assay [4] was Active. Moreover, the Activity in assay [7] is 34%.
`CC1(C)C=Cc2c(ccc(/C=N/NC(=O)c3ccc(O)cc3)c2O)O1`: the outcome in assay [1] was inactive. For the same molecule, the MIC in assay [8] came to 3.9 µM (≈ 1.32 µg/mL). The inhibition entry in assay [3] is “inactive”. Besides, in assay [4], the result was Active. Also, the Activity in [7] turned out to be 44%.
As for `CC1(C)C=Cc2c(ccc(/C=N/NS(=O)(=O)c3ccc(C(F)(F)F)cc3)c2O)O1`, in assay [9], the Activity entry was “Dose-Dependent Effect”. For the same molecule, the Kapp in assay [10] was 6.02 10^3/M. In addition, the outcome in [1], in assay [2] and in assay [5] was inactive. For the same molecule, in [3], the IC50 is over 250 µM. In assay [4], the outcome was Active.
Consider `Cc1ccc(C(=O)N/N=C/c2ccc3c(c2O)C=CC(C)(C)O3)cc1`, for which the result in assay [1] was inactive. In [8], the MIC was over 250 µM. Further, in assay [3], the inhibition result is “inactive”. The result in [4] was Active. Besides, the Activity in [7] came out at 44%.
Take `CC1(C)C=Cc2c(ccc(/C=N/NC(=O)c3ccncc3)c2O)O1`: the result in assay [1] was inactive. Besides, in [8], the MIC was 15.6 µM (≈ 5.04 µg/mL). For the same molecule, the inhibition entry in assay [3] was “inactive”. Moreover, the outcome in assay [4] was Active. Further, the Activity in [7] is on record as 34%.
With `CC1(C)C=Cc2c(ccc(/C=N/NC(=O)c3ccc(C(C)(C)C)cc3)c2O)O1`, the outcome in [1] and in assay [6] was inactive. Moreover, the inhibition entry in assay [3] is “inactive”. Besides, the result in assay [4] was Active. Further, the Activity in assay [7] was determined as 44%.
Consider `CC1(C)C=Cc2c(ccc(/C=N/NC(=O)c3ccc([N+](=O)[O-])cc3)c2O)O1`, for which the outcome in assay [1] and in assay [6] was inactive. Also, in [3], the inhibition entry is “inactive”. For the same molecule, the outcome in assay [4] was Active. Moreover, the Activity in assay [7] turned out to be 34%.
Turning to `CC1(C)C=Cc2c(ccc(/C=N/NC(=O)c3cccnc3)c2O)O1`, the outcome in assay [1] was inactive. Besides, the minimum inhibitory concentration (MIC) in [8] was determined as 10 µM (≈ 3.23 µg/mL). In assay [3], the inhibition result was “inactive”. Besides, the outcome in [4] was Active. The Activity in assay [7] came out at 34%.
In the case of `CC1(C)C=Cc2c(ccc(/C=N/NC(=O)c3ccc(O)cc3O)c2O)O1`, the Activity result in assay [9] is “Dose-Dependent Effect”; in assay [7], 34%. Also, in assay [10], the Kapp was 5.73 10^3/M. The result in assay [1] and in assay [12] was inactive. Also, the figures for the MIC in assay [8] and in assay [11] were 10 µM (≈ 3.54 µg/mL) and 64 µg/mL (≈ 181 µM), respectively. In [3], the inhibition result was “inactive”. For the same molecule, in assay [4], the result was Active. Also, the “inhibition zone (IZ)” value in [13] was determined as 11 mm.
On to `O=c1c(O)c(-c2ccc(O)c(O)c2)oc2cc(O)ccc12` [FISETIN], for which the Activity in assay [7] is reported as 42%.
In the case of `CC1(C)C=Cc2c(ccc(/C=N/NS(=O)(=O)c3ccccc3)c2O)O1`, the result in assay [1] and in assay [5] was inactive. Also, in [3], the IC50 was 22 µM. For the same molecule, the outcome in assay [4] was Active.
Consider `CC1(C)C=Cc2c(ccc(/C=N/NC(=O)c3ccc(Br)cc3)c2O)O1`, for which the outcome in assay [1] and in assay [6] was inactive. In addition, the inhibition result in [3] was “inactive”. Besides, the result in [4] was Active. For the same molecule, in assay [7], the Activity is 44%.
Regarding `Cc1cc(C(=O)N/N=C/c2ccc3c(c2O)C=CC(C)(C)O3)ccc1[N+](=O)[O-]`, the outcome in [1] was inactive. Besides, the MIC in assay [8] was 62.5 µM (≈ 23.8 µg/mL). Also, the inhibition result in assay [3] is “inactive”. For the same molecule, the result in [4] was Active. Besides, the Activity in assay [7] is 34%.
For `CC1(C)C=Cc2c(ccc(/C=N/NC(N)=O)c2O)O1`, the Activity is 18% in assay [14] and “Dose-Dependent Effect” in [9]. In addition, the Kapp in assay [10] was 9.55 10^3/M. Besides, the outcome in assay [1] and in [5] was inactive. For the same molecule, the IC50 in [3] was determined as 27 µM. Moreover, the outcome in [4] was Active.
`CC(=O)N/N=C/c1ccc2c(c1O)C=CC(C)(C)O2`: in assay [1], the result was inactive. Besides, the outcome in [2] and in assay [4] was Active. In addition, the MIC in [8] stood at 40 µM (≈ 10.4 µg/mL). For the same molecule, the inhibition result in assay [3] is “inactive”.
`CC1(C)C=Cc2c(ccc(/C=N/NC(=O)c3ccccc3)c2O)O1`: the outcome in assay [1] was inactive. For the same molecule, the MIC in [8] is 7.8 µM (≈ 2.51 µg/mL). The inhibition result in assay [3] was “inactive”. Moreover, the outcome in assay [4] was Active. The Activity in assay [7] was found to be 44%.
`CC1(C)C=Cc2c(ccc(/C=N/NC(N)=S)c2O)O1`: the result in [1] was inactive. Moreover, in assay [8], the MIC came out at 125 µM (≈ 34.7 µg/mL). In assay [3], the inhibition entry is “inactive”. In assay [4], the result was Active. Moreover, in assay [7], the Activity came out at 54%.
